Results as given in patent publication US5387512A, “Preparation of 3-[z-benzoxazol-2-yl)ethyl]-5-(1-hydroxyethyl)-6-methyl-2-(1H)-pyridinon e by biotransformation” (Merck & Co. Inc., priority 1992, dated 1995).

Key:
[1] = Incubation With Rat Liver Slices; type: in vitro ADME
Experimental: Incubation of tritiated 3-[2-(benzoxazol-2-yl)ethyl]-5-ethyl-6-methyl-2-(1H)-pyridinone (parent compound/14.18 μmol) with rat liver slices (6.1 g) in 100 ml of Williams Medium E at pH. […] Ethyl acetate extraction gave a recovery of ~70% of the tritiated material, while ~25% (~9 HPLC peaks) remained in the aqueous residue.

[2] = biological target: T1, recombinant HIV reverse transcriptase (HIV RTR) (Human immunodeficiency virus type 1 group M subtype B, UniProt P04585); test: Reverse Transcriptase Assay; type: biochemical; settings: incorporation of [3H]dGMP into acid-precipitable cDNA; dGTP and poly r(C).oligo d(G)12-18 at Km; 37° C., 45 minutes; read-out: calculated IC50 value
T1 construct: recombinant HIV reverse transcriptase (HIV RTR)
Experimental: The assay measures the incorporation of tritiated deoxyguanosine monophosphate by recombinant HIV reverse transcriptase (HIV RTR) (or other RT) into acid-precipitable cDNA at the Km values of dGTP and poly r(C).oligo d(G)12-18.
Thirty uL of a reaction mixture containing equal volumes of: 500 mM Tris.HCl (pH 8.2), 300 mM MgCl2, 1200 mM KCl, 10 mM DTT, 400 μg/mL poly r(c).oligo d(G) [prepared by dissolving 1.5 mg (25 U) poly r(C).oligo d(G) in 1.5 ml sterile distilled H2 O and diluting to 400 μg/ml], 0.1 μCi/μl [^3 H] dGTP, 160 μM dGTP, was added to 10 μl sterile distilled H2 O, and 2.5 μl of potential inhibitor. An aliquot of 10 μL of 5 nM purified HIV RTR was added to initiate the reaction. The mixture was incubated at 37° C. for 45 minutes.
After incubation is complete, the tubes were cooled in ice for 5 minutes. Ice-cold 13% TCA containing 10 mM NaPPi (200 μl) are added and the mixture incubated on ice for 30 minutes. The precipitated cDNA is removed by filtration using presoaked glass filters [TCA, NaPPi ]. The precipitate is then washed with 1N HCl, 10 mM NaPPi.
The filter discs are then counted in a scintillation counter.
Under these conditions [dGTP] and poly r(C).oligo d(G)12-18 each are approximately equal to the appropriate Km value. Approximately 5-6,000 cpm of [^3 H] GMP are incorporated into acid-precipitable material. The RT reaction is concentration- and time-dependent.

metabolised at 4 h ([1]; tritiated compound 14.18 μmol, rat liver slices 6.1 g, Williams Medium E, pH 7.4, 37° C., four hours, read-out: metabolism) [%]	Structure (SMILES)	IC50 [2] [µM]	radioactive HPLC peak, share of the total metabolites ([1]; ethyl acetate extract after four hours incubation of parent compound with rat liver slices)
~32	CCc1cc(CCc2nc3ccccc3o2)c(O)nc1C [parent compound, 3-[2-(Benzoxazol-2-yl)ethyl]-5-ethyl-6-methyl-2-(1H)-pyridinone]		
	Cc1[nH]c(=O)c(CCc2nc3ccccc3o2)cc1C(C)O (stereo not drawn) [compound (I), 3-[2-(benzoxazol-2-yl)ethyl]-5-(1-hydroxyethyl)-6-methyl-2(1H)-pyridinone]	~0.71	~ 37%
